Where two headings read alike, the source gives them in different places.
Assays:
[1] = biological target: T1, Rat brain delta opioid receptor (Rattus norvegicus, UniProt P33533); test: Rat brain delta opioid receptor binding
T1 construct: from tissue; host or cells: rat brain

[2] = biological target: T2, Rat brain mu opioid receptor (Rattus norvegicus, UniProt P33535); test: Rat brain mu opioid receptor binding assay ([3H]DAMGO)
T2 construct: from tissue; host or cells: forebrain of male Sprague Dawley rats
T2 sequence (P33535 whole entry): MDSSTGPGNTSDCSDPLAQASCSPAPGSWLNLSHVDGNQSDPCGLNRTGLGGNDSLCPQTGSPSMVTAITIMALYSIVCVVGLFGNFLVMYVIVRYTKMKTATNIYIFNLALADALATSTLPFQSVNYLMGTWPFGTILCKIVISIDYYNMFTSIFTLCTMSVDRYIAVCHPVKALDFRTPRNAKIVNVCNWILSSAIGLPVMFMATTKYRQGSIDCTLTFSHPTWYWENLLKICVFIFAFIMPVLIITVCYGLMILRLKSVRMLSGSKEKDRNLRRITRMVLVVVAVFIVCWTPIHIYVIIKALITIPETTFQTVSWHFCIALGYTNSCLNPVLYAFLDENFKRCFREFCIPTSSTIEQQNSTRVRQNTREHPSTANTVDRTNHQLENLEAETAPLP
Procedure: • Procedure: Male, Sprague Dawley (150-250 g, VAF, Charles River, Kingston, N.Y.) are killed by CO2, and their brains removed and placed immediately in ice cold Tris HCl buffer (50 mM, pH 7.4). The forebrains are separated from the remainder of the brain by a coronal transection, beginning dorsally at the colliculi and passing ventrally through the midbrain-pontine junction. After dissection, the forebrains are homogenized in Tris buffer in a Teflon®-glass homogenizer. The homogenate is diluted to a concentration of 1 g of forebrain tissue per 80 mL Tris and centrifuged at 39,000×g for 10 min. The pellet is resuspended in the same volume of Tris buffer containing 5 mM MgCl2 with several brief pulses from a Polytron homogenizer. This particulate preparation is used for the mu-opioid binding assays. […] Kd and Ki values are calculated using GraphPad PRISM data analysis program.

T1 sequence (P33533 whole entry): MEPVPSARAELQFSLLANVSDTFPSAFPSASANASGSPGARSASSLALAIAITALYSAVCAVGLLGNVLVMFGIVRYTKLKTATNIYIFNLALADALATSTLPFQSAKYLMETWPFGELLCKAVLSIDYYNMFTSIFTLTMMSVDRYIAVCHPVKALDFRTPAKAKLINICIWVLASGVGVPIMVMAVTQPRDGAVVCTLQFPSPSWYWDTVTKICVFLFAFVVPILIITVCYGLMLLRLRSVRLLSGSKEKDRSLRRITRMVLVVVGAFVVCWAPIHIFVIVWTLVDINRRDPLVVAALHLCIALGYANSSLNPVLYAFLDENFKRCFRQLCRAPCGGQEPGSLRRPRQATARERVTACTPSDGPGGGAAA

| Structure (SMILES) | Ki ([1]; read-out: rDOR Ki) | Ki ([2]; read-out: rMOR Ki) | Ki ([1]; rDOR Ki) | Ki ([2]; rMOR Ki) |
| --- | --- | --- | --- | --- |
| CCNC(=O)c1ccc2c(c1)Oc1ccccc1C2=C1CC2CCC(C1)N2 (single isomer, unassigned) [Compound 56] | 161 nM | 712 nM |  |  |
| CCNC(=O)c1ccc2c(c1)OCc1ccccc1C2=C1CCN(C)CC1 [Compound 9, 11-(1-Methyl-piperidin-4-ylidene)-6,11-dihydro-dibenzo[b,e]oxepine-3-carboxylic acid ethylamide] | > 100000 nM | > 100000 nM |  |  |
| CCNC(=O)c1ccc2c(c1)OCc1ccccc1C2=C1CCN(C(=O)OCC(Cl)(Cl)Cl)CC1 [Compound 10, 4-(3-Ethylcarbamoyl-6H-dibenzo[b,e]oxepin-11-ylidene) -piperidine-1-carboxylic acid 2,2,2-trichloro-ethyl ester] | > 100000 nM | 92500 nM |  |  |
| CCNC(=O)c1ccc2c(c1)OCc1ccccc1C2=C1CCNCC1 [Compound 11, 11-Piperidin-4-ylidene-6,11-dihydro-dibenzo[b,e]oxepine-3-carboxylic acid ethylamide] | 317 nM | 5660 nM |  |  |
| CCNC(=O)c1ccc2c(c1)OCc1ccccc1C2=C1CCN(Cc2cccs2)CC1 [Compound 13] | 143 nM | 1900 nM |  |  |
| C=C(C)CN1CCC(=C2c3ccccc3COc3cc(C(=O)NCC)ccc32)CC1 [Compound 14] | 432 nM | 4820 nM |  |  |
| CCNC(=O)c1ccc2c(c1)OCc1ccccc1C2=C1CCN(Cc2ccc(O)c(OC)c2)CC1 [Compound 18] | 2000 nM | 2420 nM |  |  |
| C=CCN1CCC(=C2c3ccccc3COc3cc(C(=O)NCC)ccc32)CC1 [Compound 19, 11-(1-Allyl-piperidin-4-ylidene)-6,11-dihydro-dibenzo[b,e]oxepine-3-carboxylic acid ethylamide] | 368 nM | 2870 nM |  |  |
| CCNC(=O)c1ccc2c(c1)OCc1ccccc1C2=C1CCN(CCc2ccccc2)CC1 [Compound 20] | 23300 nM | 248 nM |  |  |
| CCNC(=O)c1ccc2c(c1)Oc1ccccc1C2=C1CC2CCC(C1)N2CCc1ccccc1 [Compound 27] | 209 nM | 189 nM |  |  |
| CCNC(=O)c1ccc2c(c1)Oc1ccccc1C2=C1CCNCC1 [Compound 32, 9-Piperidin-4-ylidene-9H-xanthene-3-carboxylic acid ethylamide] |  | 1490 nM | 73 nM |  |
| C#CCN1CCC(=C2c3ccccc3Oc3cc(C(=O)N(CC)CC)ccc32)CC1 [Compound 33, 9-(1-Prop-2-ynyl-piperidin-4-ylidene)-9H-xanthene-3-carboxylic acid diethylamide] |  |  | 16.5 nM | 5420 nM |
| CCN(CC)C(=O)c1ccc2c(c1)Oc1ccc(NC(C)=O)cc1C2=C1CCNCC1 [Compound 34, 7-Acetylamino-9-piperidin-4-ylidene-9H-xanthene-3-carboxylic acid diethylamide] | > 10000 nM | > 10000 nM |  |  |
| CCN(CC)C(=O)c1ccc2c(c1)Oc1ccc(NC(C)=O)cc1C2=C1CCN(C)CC1 [Compound 41, 7-Acetylamino-9-(1-methyl-piperidin-4-ylidene)-9H-xanthene-3-carboxylic acid diethylamide] | 5200 nM | > 10000 nM |  |  |
| CCN(CC)C(=O)c1ccc2c(c1)Oc1ccccc1C2C1CCN(C)CC1 (stereo not drawn) [Compound 43, 9-(1-Methylpiperidin-4-yl)-9H-xanthene-3-carboxylic acid diethylamide] |  |  |  | > 10000 nM |
| CN(C)C(=O)c1ccc2c(c1)Oc1ccccc1C2=C1CC2CCC(C1)N2 [Compound 57] |  |  | 397 nM | 5260 nM |
| CC(C)NC(=O)c1ccc2c(c1)Oc1ccccc1C2=C1CC2CCC(C1)N2 [Compound 58] |  |  | 1160 nM | 2980 nM |
| CC(C)CN(C)C(=O)c1ccc2c(c1)Oc1ccccc1C2=C1CC2CCC(C1)N2 [Compound 59] |  |  | 10.6 nM | 3340 nM |

| Structure (SMILES) | Ki ([1]; read-out: rDOR Ki) | Ki ([2]; read-out: rMOR Ki) | Ki ([1]; rDOR Ki) | Ki ([2]; rMOR Ki) |
| --- | --- | --- | --- | --- |
| CCCN(CCC)C(=O)c1ccc2c(c1)Oc1ccccc1C2=C1CC2CCC(C1)N2 [Compound 60] |  |  | 4.62 nM | 836 nM |
| CCCNC(=O)c1ccc2c(c1)Oc1ccccc1C2=C1CC2CCC(C1)N2 [Compound 63] |  |  | 108 nM | 1730 nM |
| CNC(=O)c1ccc2c(c1)Oc1ccccc1C2=C1CC2CCC(C1)N2 [Compound 64] |  |  | 118 nM | 711 nM |
| NC(=O)c1ccc2c(c1)Oc1ccccc1C2=C1CC2CCC(C1)N2 [Compound 65] |  |  | 197 nM | 858 nM |
| CCN(CC)C(=O)c1ccc2c(c1)Oc1ccc(C)cc1C2=C1CC2CCC(C1)N2 [Compound 67] |  |  | 54.4 nM | 10900 nM |
| CCN(CC)C(=O)c1ccc2c(c1)Oc1cc(OC)ccc1C2=C1CC2CCC(C1)N2 [Compound 70, 9-(8-Aza-bicyclo[3.2.1]oct-3-ylidene)-6-methoxy-9H-xanthene-3-carboxylic acid diethylamide] |  |  | 2.31 nM | 5740 nM |
| CCN(CC)C(=O)c1ccc2c(c1)Sc1ccccc1C2=C1CC2CCC(C1)N2Cc1c[nH]cn1 [Compound 74] |  |  | 3.79 nM | 848 nM |
| CCNC(=O)c1ccc2c(c1)Sc1ccccc1C2=C1CC2CCC(C1)N2 [Compound 80] |  |  | 260 nM | 473 nM |
| CCNC(=O)c1ccc2c(c1)Sc1ccccc1C2=C1CC2CCC(C1)N2 [Compound 81] |  |  | 77.6 nM | 838 nM |
| CCN(CC)C(=O)c1ccc2c(c1)Oc1ccc(Br)cc1C2=C1CC2CCC(C1)N2 [Compound 83] |  |  | 139 nM | 17700 nM |
| CCN(CC)C(=O)c1ccc2c(c1)Oc1ccc(-c3ccncc3)cc1C2=C1CC2CCC(C1)N2 [Compound 85] |  |  | 3000 nM | 10700 nM |
| CCN(CC)C(=O)c1ccc2c(c1)Oc1ccc(-c3ccoc3)cc1C2=C1CC2CCC(C1)N2 [Compound 86] |  |  | 1760 nM | 12500 nM |
| CCN(CC)C(=O)c1ccc2c(c1)Oc1ccc(-c3ccsc3)cc1C2=C1CC2CCC(C1)N2 [Compound 90] |  |  | 836 nM | 12400 nM |
| CCN(CC)C(=O)c1ccc2c(c1)Oc1ccc(-c3ccc[nH]3)cc1C2=C1CC2CCC(C1)N2 [Compound 93] |  |  | > 10000 nM | > 10000 nM |
| CCN(CC)C(=O)c1ccc2c(c1)Oc1c(cccc1-c1ccccc1)C2=C1CC2CCC(C1)N2 [Compound 95, 9-(8-Aza-bicyclo[3.2.1]oct-3-ylidene)-5-phenyl-9H-xanthene-3-carboxylic acid diethylamide] |  |  | 25.4 nM | 6520 nM |
| CCN(CC)C(=O)c1ccc2c(c1)Oc1c(cccc1-c1cnc3ccccc3c1)C2=C1CC2CCC(C1)N2 [Compound 98] |  | 7360 nM | 24.5 nM |  |
| CCN(CC)C(=O)c1ccc2c(c1)Oc1c(F)cccc1C2=C1CC2CCC(C1)N2 [Compound 102] |  |  | 68 nM | 2860 nM |

Source: patent US7982042B2, “Thiozanthene derivatives as delta-opioid modulators” (priority 2003, dated 2011)
